As a reminder, the pEC50 is the negative decadic logarithm of the EC50, by convention in mol/L.

pEC50: −log10 of the molar value. Read-outs that look alike come from different tables or passages of the source.

We go through 35 compounds from patent publication US11339147B2, “Lactam compound as FXR receptor agonist” (CSPC ZHONGQI PHARMACEUTICAL TECHNOLOGY (SHIJIAZHUANG) CO., …, priority 2017, dated 2022).

The target of the assay is T1, glutathione-S-transferase-labeled FXR human protein (Homo sapiens, UniProt Q96RI1).
T1 construct: purchased Invitrogen
T1 sequence (Q96RI1 1-486): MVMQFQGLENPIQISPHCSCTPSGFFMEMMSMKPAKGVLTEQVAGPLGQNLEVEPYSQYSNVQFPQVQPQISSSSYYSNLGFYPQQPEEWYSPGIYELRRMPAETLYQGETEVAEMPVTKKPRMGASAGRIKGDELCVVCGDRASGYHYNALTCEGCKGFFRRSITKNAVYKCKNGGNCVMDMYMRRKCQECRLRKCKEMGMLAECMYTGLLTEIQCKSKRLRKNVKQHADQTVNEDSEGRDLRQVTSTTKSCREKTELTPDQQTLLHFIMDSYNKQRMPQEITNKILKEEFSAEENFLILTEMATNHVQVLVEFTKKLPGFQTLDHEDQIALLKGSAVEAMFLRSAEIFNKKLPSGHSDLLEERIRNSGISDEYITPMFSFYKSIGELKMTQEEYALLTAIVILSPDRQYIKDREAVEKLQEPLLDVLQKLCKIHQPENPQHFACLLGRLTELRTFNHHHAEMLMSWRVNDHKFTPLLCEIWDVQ
Briefly: FXR biochemical experiment (alphascreen, coactivator recruitment). The following applies: for pEC50: alphascreen, activation of FXR binding reaction with steroid receptor coactivator, read-out: FXR enzyme activity EC50; for Emax: read-out: FXR enzyme activity Efficacy (activation efficacy percent). The protocol: FXR Biochemical Experiment
To test the effect of the compound on the activation of the FXR binding reaction by a Homogenous Proximity Luminescent Amplified Assay (alphascreen).
1. Protein: glutathione-S-transferase-labeled FXR human protein (Invitrogen)
2. Coactivator: biotin-labeled steroid receptor coactivator (Anaspec)
3. Detection reagent: Homogenous Proximity Luminescent Amplified Assay (alphascreen) detection kit (PerkinElmer)
1. Dilution of compounds: The test compound was prepared as a 40 μM DMSO solution, which was then diluted 3-fold to 10 concentration points. The reference compound was prepared as a 400 μM DMSO solution, and then was 1.5-fold diluted to 10 concentration points. The diluted DMSO solution was added to the micro-wells of a 384-well plate at a volume of 150 nl per well.
2. Glutathione-S-transferase-labeled FXR human protein and biotin-labeled steroid receptor coactivator were prepared to a mixed solution at a concentration of 0.4 nM and 30 nM, respectively. The mixed solution was added to the micro-wells of the 384-well plate at a volume of 15 μL per well, and incubated for 1 hour at room temperature.
3. […] The experiment process was protected from light. It was incubated for 1 hour at room temperature.
4. […] The experiment process was protected from light. It was incubated for 1 hour at room temperature.
5. EC50 test: Envision was used to excite at 680 nm and the […] signal at 520-620 nm was read.
6. Data analysis: Data analysis was conducted using Prism 5.0 to calculate the EC50 value of the activation effect of the compound.

Setting [1] is: highest signal relative to reference compound chenodeoxycholic acid (Examples 1-30).
Where [2] appears, read: highest signal relative to reference compound obeticholic acid (Examples 31-47).

Take `O=C(O)C1CCC(CN2C(=O)C3(CC3)c3cc(OCc4c(-c5c(Cl)cccc5Cl)noc4C4CC4)ccc32)CC1` (single isomer, unassigned) [Compound 20]: the pEC50 is 6.08. In addition, the “FXR enzyme activity Efficacy (activation efficacy percent)” value under setting [1] was determined as 169%.

With `O=C(O)C1CCC(CN2C(=O)C3(CC3)c3cc(OCc4c(-c5c(Cl)cccc5Cl)noc4C4CC4)ccc32)CC1` (single isomer, unassigned) [Compound 21], the pEC50 was 6.02. Also, the “FXR enzyme activity Efficacy (activation efficacy percent)” value under setting [1] worked out at 96%.

In the case of `O=C(O)c1cccc(CN2C(=O)C3(CC3)c3cc(OCc4c(-c5c(Cl)cccc5Cl)noc4C4CC4)ccc32)c1` [Compound 1], the pEC50 is 6.70. In addition, under setting [1], the Emax is 156%.

In the case of `O=C(O)c1ccc(CN2C(=O)C3(CC3)c3cc(OCc4c(-c5c(Cl)cccc5Cl)noc4C4CC4)ccc32)cc1` [Compound 2], the pEC50 is 6.54. For the same compound, the Emax under setting [1] was 155%.

Take `O=C(O)c1ccc(N2C(=O)C3(CC3)c3cc(OCc4c(-c5c(Cl)cccc5Cl)noc4C4CC4)ccc32)nc1` [Compound 3]: the pEC50 is 6.74. Moreover, the Emax under setting [1] stood at 165%.

As to `Cn1cc(C(=O)O)c2ccc(N3C(=O)C4(CC4)c4cc(OCc5c(-c6c(Cl)cccc6Cl)noc5C5CC5)ccc43)cc21` [Compound 4], the pEC50 was 6.70. Moreover, under setting [1], the Emax turned out to be 256%.

With `O=C(O)c1ccc(N2C(=O)C3(CC3)c3cc(OCc4c(-c5c(Cl)cccc5Cl)noc4C4CC4)ccc32)s1` [Compound 5], the pEC50 is 6.82. Also, under setting [1], the Emax was found to be 242%.

With `O=C(O)c1ccc(N2C(=O)C3(CC3)c3cc(OCc4c(-c5c(Cl)cccc5Cl)noc4C4CC4)ccc32)cc1` [Compound 6], the pEC50 was 7.00. Besides, under setting [1], the Emax came to 169%.

As for `O=C(O)c1cccc(N2C(=O)C3(CC3)c3cc(OCc4c(-c5c(Cl)cccc5Cl)noc4C4CC4)ccc32)c1` [Compound 7], the pEC50 is 6.62. Besides, the Emax under setting [1] is 144%.

As for `Cc1sc(N2C(=O)C3(CC3)c3cc(OCc4c(-c5c(Cl)cccc5Cl)noc4C4CC4)ccc32)nc1C(=O)O` [Compound 8], the pEC50 is 6.09. For the same compound, under setting [1], the Emax worked out at 35%.

As for `COc1cc(N2C(=O)C3(CC3)c3cc(OCc4c(-c5c(Cl)cccc5Cl)noc4C4CC4)ccc32)ccc1C(=O)O` [Compound 9], the pEC50 was 5.81. Further, the Emax under setting [1] was 229%.

`O=C(O)c1ccc(N2C(=O)C3(CC3)c3cc(OCc4c(-c5c(Cl)cccc5Cl)noc4C4CC4)ccc32)cc1F` [Compound 10]: the pEC50 is 5.99. Further, the Emax under setting [1] was found to be 312%.

Turning to `O=C(O)c1cccc(CN2C(=O)C3(CCCC3)c3cc(OCc4c(-c5c(Cl)cccc5Cl)noc4C4CC4)ccc32)c1` [Compound 11], the pEC50 is 6.24. Besides, the Emax under setting [1] came out at 82%.

For the compound `O=C(O)c1ccc(N2C(=O)C3(CC3)c3ccc(OCc4c(-c5c(Cl)cccc5Cl)noc4C4CC4)cc32)cc1` [Compound 12], the pEC50 was 5.75. In addition, under setting [1], the Emax turned out to be 33%.

As for `CC1(C)C(=O)N(c2ccc(C(=O)O)cc2)c2ccc(OCc3c(-c4c(Cl)cccc4Cl)noc3C3CC3)cc21` [Compound 13], the pEC50 is 7.05. Besides, under setting [1], the Emax amounted to 163%.

With `CC1(C)C(=O)N(Cc2cccc(C(=O)O)c2)c2ccc(OCc3c(-c4c(Cl)cccc4Cl)noc3C3CC3)cc21` [Compound 14], the pEC50 was 6.70. Moreover, under setting [1], the Emax amounted to 136%.

With `CC1(C)C(=O)N(c2cccc(C(=O)O)c2)c2ccc(OCc3c(-c4c(Cl)cccc4Cl)noc3C3CC3)cc21` [Compound 15], the pEC50 is 6.64. Besides, the Emax under setting [1] came to 152%.

`O=C(O)CCCN1C(=O)C2(CC2)c2cc(OCc3c(-c4c(Cl)cccc4Cl)noc3C3CC3)ccc21` [Compound 16]: the pEC50 is 5.47. The Emax under setting [1] stood at 151%.

In the case of `O=C(O)CCN1C(=O)C2(CC2)c2cc(OCc3c(-c4c(Cl)cccc4Cl)noc3C3CC3)ccc21` [Compound 17], the pEC50 is 5.73. Besides, the Emax under setting [1] is 169%.

Consider `O=C(O)C1CC=C(N2C(=O)C3(CC3)c3cc(OCc4c(-c5c(Cl)cccc5Cl)noc4C4CC4)ccc32)CC1` (stereo not shown) [Compound 18], for which the pEC50 is 6.18. Moreover, the Emax under setting [1] worked out at 142%.

Regarding `O=C(O)C12CC(CN3C(=O)C4(CC4)c4cc(OCc5c(-c6c(Cl)cccc6Cl)noc5C5CC5)ccc43)(C1)C2` [Compound 19], the pEC50 is 5.59. The Emax under setting [1] worked out at 95%.

As to `O=C(O)c1ccc(CN2C(=O)C3(CC3)c3cc(OCc4c(-c5c(Cl)cccc5Cl)noc4C4CC4)ccc32)nc1` [Compound 22], the pEC50 is 6.18. The Emax under setting [1] was 200%.

Take `O=C(O)c1csc(N2C(=O)C3(CC3)c3cc(OCc4c(-c5c(Cl)cccc5Cl)noc4C4CC4)ccc32)c1` [Compound 23]: the pEC50 was 6.51. The Emax under setting [1] was determined as 120%.

Turning to `O=C(O)c1cncc(N2C(=O)C3(CC3)c3cc(OCc4c(-c5c(Cl)cccc5Cl)noc4C4CC4)ccc32)c1` [Compound 24], the pEC50 was 6.21. The Emax under setting [1] worked out at 124%.

As for `O=C(O)c1ccc(N2C(=O)C3(CC3)c3cc(OCc4c(-c5c(Cl)cccc5Cl)noc4C4CC4)ccc32)cc1Cl` [Compound 25], the pEC50 was 6.39. In addition, under setting [1], the Emax is 130%.

Take `O=C(O)c1ccccc1N1C(=O)C2(CC2)c2cc(OCc3c(-c4c(Cl)cccc4Cl)noc3C3CC3)ccc21` [Compound 26]: the pEC50 was 5.19. Moreover, the Emax under setting [1] was 21%.

Turning to `O=C(O)c1cc(F)cc(N2C(=O)C3(CC3)c3cc(OCc4c(-c5c(Cl)cccc5Cl)noc4C4CC4)ccc32)c1` [Compound 27], the pEC50 was 6.39. In addition, under setting [1], the Emax came out at 218%.

As for `O=C(O)c1ccc(N2C(=O)C3(CC3)c3cc(OCc4c(-c5ccccc5OC(F)(F)F)noc4C4CC4)ccc32)cc1` [Compound 28], the pEC50 was 6.19. Further, the Emax under setting [1] was determined as 186%.

For `O=C(O)c1ccc(N2C(=O)C3(CC3)c3cc(OCc4c(-c5c(Cl)cncc5Cl)noc4C4CC4)ccc32)cc1` [Compound 29], the pEC50 was 6.25. Besides, under setting [1], the Emax turned out to be 211%.

Consider `O=C(O)c1ccc(N2C(=O)C3(CC3)c3cc(OCc4c(-c5c(Cl)cccc5Cl)noc4C4CC4)cnc32)cc1` [Compound 30], for which the pEC50 is 5.82. The Emax under setting [1] was found to be 228%.

As to `Cn1cc(C(=O)O)c2ccc(N3C(=O)CCc4cc(OCc5c(-c6c(Cl)cccc6Cl)noc5C5CC5)ccc43)cc21` [Compound 31], the negative logarithm of the EC50 (pEC50) was 7.37. Moreover, the Emax under setting [2] is 115%.

Regarding `O=C(O)c1ccc(N2C(=O)CCc3cc(OCc4c(-c5c(Cl)cccc5Cl)noc4C4CC4)ccc32)cc1` [Compound 33], the pEC50 is 6.84. In addition, the Emax under setting [2] came out at 127%.

Take `O=C(O)c1ccc(N2C(=O)CCc3cc(OCc4c(-c5c(Cl)cccc5Cl)noc4C4CC4)ccc32)c(F)c1` [Compound 34]: the pEC50 is 6.90. Also, the Emax under setting [2] turned out to be 140%.

For the compound `O=C(O)c1cnc(N2C(=O)CCc3cc(OCc4c(-c5c(Cl)cccc5Cl)noc4C4CC4)ccc32)c(F)c1` [Compound 35], the pEC50 was 8.05. For the same compound, the Emax under setting [2] worked out at 161%.

For `O=C(O)c1ccc(N2C(=O)CCc3cc(OCc4c(-c5c(Cl)cccc5Cl)noc4C4CC4)ccc32)c(Cl)c1` [Compound 36], the pEC50 was 7.16. Also, the Emax under setting [2] turned out to be 135%.
